Reference: ChEMBL document CHEMBL1150323, “Peptomeric analogues of trypsin inhibitor SFTI-1 isolated from sunflower seeds” (Bioorg Med Chem, 2008)
One block for each compound: values may come before it. Calls of active or inactive are those of the source. The calls are words filed in the database; no cut-off is given here. Positions of bridges follow the written chain, without caps; N, C: chain ends. Non-standard residues stand in square brackets, D forms with d. Residues, ends and D or L forms follow the SMILES beside them. Nphe = O=C(O)CNCc1ccccc1; Abu = CC[C@H](N)C(=O)O; Nlys = NCCCCNCC(=O)O

Key:
[1] = target: T1, Serine protease 1 (Bos taurus) (UniProt P00760); assay: Inhibition of bovine beta trypsin assessed as residual activity by spectrophotometry
T1 sequence (whole entry): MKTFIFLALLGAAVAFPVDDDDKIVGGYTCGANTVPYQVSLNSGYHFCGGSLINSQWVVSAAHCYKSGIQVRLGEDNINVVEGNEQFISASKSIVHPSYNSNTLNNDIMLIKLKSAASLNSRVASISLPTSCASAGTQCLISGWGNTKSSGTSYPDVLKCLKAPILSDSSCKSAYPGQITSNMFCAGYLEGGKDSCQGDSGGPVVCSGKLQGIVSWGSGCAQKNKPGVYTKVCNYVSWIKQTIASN

[2] = Proteolytic stability assessed as half life of trypsin-mediated hydrolysis by RP-HPLC; type: ADME
[3] = species on record: Bos taurus; assay: Inhibition of bovine alpha chymotrypsin assessed as residual activity by spectrophotometry
[4] = Proteolytic stability assessed as trypsin-mediated hydrolysis at pH 8.3 after 24 hrs by RP-HPLC; type: ADME; details: read-out: Activity
[5] = species on record: Bos taurus; assay: Inhibition of bovine alpha chymotrypsin assessed as residual activity after 3 hrs by spectrophotometry
[6] = target: T1, Serine protease 1 (Bos taurus); assay: Inhibition of bovine beta trypsin assessed as residual activity after 40 mins by spectrophotometry
[7] = species on record: Bos taurus; assay: Inhibition of bovine alpha chymotrypsin assessed as residual activity after 40 mins by spectrophotometry
[8] = target: T1, Serine protease 1 (Bos taurus); assay: Inhibition of bovine beta trypsin assessed as residual activity after 60 mins by spectrophotometry

SMILES: CC[C@H](C)[C@@H]1NC(=O)[C@@H]2CCCN2C(=O)[C@@H]2CCCN2C(=O)[C@H]([C@@H](C)CC)NC(=O)[C@H](CO)NC(=O)CN(CCCCN)C(=O)[C@H]([C@H](C)O)NC(=O)[C@@H](NC(=O)[C@@H](N)CCCCN)CSSC[C@@H](C(=O)N[C@@H](Cc2ccccc2)C(=O)N2CCC[C@H]2C(=O)N[C@@H](CC(=O)O)C(=O)O)NC1=O
Ka [6]: 8 ×10⁷ /M

SMILES: CC[C@H](NC(=O)[C@@H](NC(=O)[C@@H]1CCCN1C(=O)[C@@H]1CCCN1C(=O)[C@@H](NC(=O)[C@H](CO)NC(=O)CN(CCCCN)C(=O)[C@@H](NC(=O)[C@H](CC)NC(=O)[C@@H](N)CCCCN)[C@H](C)O)[C@@H](C)CC)[C@@H](C)CC)C(=O)N[C@@H](Cc1ccccc1)C(=O)N1CCC[C@H]1C(=O)N[C@@H](CC(=O)O)C(=O)O
Activity [1]: inactive

SMILES: CC[C@H](NC(=O)[C@H](CCCNC(=N)N)NC(=O)CN)C(=O)N[C@H](C(=O)N(CC(=O)N[C@@H](CO)C(=O)N[C@H](C(=O)N1CCC[C@H]1C(=O)N1CCC[C@H]1C(=O)N[C@H](C(=O)N[C@@H](CC)C(=O)N[C@@H](Cc1ccccc1)C(=O)N1CCC[C@H]1C(=O)N[C@@H](CC(=O)O)C(=O)O)[C@@H](C)CC)[C@@H](C)CC)Cc1ccccc1)[C@H](C)O
Ka [7]: 7 ×10⁷ /M

SMILES: CC[C@H](NC(=O)[C@H](CCCNC(=N)N)NC(=O)CN)C(=O)N[C@H](C(=O)N(CC(=O)N[C@@H](CO)C(=O)N[C@H](C(=O)N1CCC[C@H]1C(=O)N1CCC[C@H]1C(=O)N[C@H](C(=O)N[C@@H](CC)C(=O)N[C@@H](Cc1ccccc1)C(=O)N1CCC[C@H]1C(=O)N[C@@H](CC(=O)O)C(=O)O)[C@@H](C)CC)[C@@H](C)CC)Cc1ccccc1)[C@@H](C)O
metabolised at 24 h [4]: 7%

SMILES: CC[C@H](C)[C@@H]1NC(=O)[C@@H]2CCCN2C(=O)[C@@H]2CCCN2C(=O)[C@H]([C@@H](C)CC)NC(=O)[C@H](CO)NC(=O)CN(CCCCN)C(=O)[C@H]([C@@H](C)O)NC(=O)[C@@H](NC(=O)[C@H](CCCNC(=N)N)NC(=O)CN)CSSC[C@@H](C(=O)N[C@@H](Cc2ccccc2)C(=O)N2CCC[C@H]2C(=O)N[C@@H](CC(=O)O)C(=O)O)NC1=O
Ka [1]: 1 ×10⁸ /M

SMILES: CC[C@H](NC(=O)[C@H](CCCNC(=N)N)NC(=O)CN)C(=O)N[C@H](C(=O)N[C@@H](Cc1ccccc1)C(=O)N[C@@H](CO)C(=O)N[C@H](C(=O)N1CCC[C@H]1C(=O)N1CCC[C@H]1C(=O)N[C@H](C(=O)N[C@@H](CC)C(=O)N[C@@H](Cc1ccccc1)C(=O)N1CCC[C@H]1C(=O)N[C@@H](CC(=O)O)C(=O)O)[C@@H](C)CC)[C@@H](C)CC)[C@@H](C)O
half-life [2]: 1.25 h

SMILES: CC[C@@H]1NC(=O)[C@H](CCCNC(=N)N)NC(=O)CNC(=O)[C@H](CC(=O)O)NC(=O)[C@@H]2CCCN2C(=O)[C@H](Cc2ccccc2)NC(=O)[C@H](CC)NC(=O)[C@H]([C@@H](C)CC)NC(=O)[C@@H]2CCCN2C(=O)[C@@H]2CCCN2C(=O)[C@H]([C@@H](C)CC)NC(=O)[C@H](CO)NC(=O)CN(CCCCN)C(=O)[C@H]([C@@H](C)O)NC1=O
half-life [2]: 1.37 h

SMILES: CC[C@H](C)[C@@H]1NC(=O)[C@@H]2CCCN2C(=O)[C@@H]2CCCN2C(=O)[C@H]([C@@H](C)CC)NC(=O)[C@H](CO)NC(=O)CN(Cc2ccccc2)C(=O)[C@H]([C@@H](C)O)NC(=O)[C@@H](NC(=O)[C@H](CCCNC(=N)N)NC(=O)CN)CSSC[C@@H](C(=O)N[C@@H](Cc2ccccc2)C(=O)N2CCC[C@H]2C(=O)N[C@@H](CC(=O)O)C(=O)O)NC1=O (H-GRCT[Nphe]SIPPICFPD-OH; disulfide 3-11)
Ka [3]: 3.8 ×10⁸ /M

Further lines, results first:

Activity [1]: inactive
SMILES: CC[C@H](NC(=O)CNCCCCN)C(=O)N[C@H](C(=O)N(CCCCN)CC(=O)N[C@@H](CO)C(=O)N[C@H](C(=O)N1CCC[C@H]1C(=O)N1CCC[C@H]1C(=O)N[C@H](C(=O)N[C@@H](CC)C(=O)N[C@@H](Cc1ccccc1)C(=O)N1CCC[C@@H]1C(=O)N[C@@H](CC(=O)O)C(=O)O)[C@@H](C)CC)[C@@H](C)CC)[C@H](C)O

half-life [2]: 7.25 h
Ka [3]: 4.9 ×10⁶ /M
SMILES: CC[C@H](C)[C@@H]1NC(=O)[C@@H]2CCCN2C(=O)[C@@H]2CCCN2C(=O)[C@H]([C@@H](C)CC)NC(=O)[C@H](CO)NC(=O)[C@H](CCCCN)NC(=O)[C@H]([C@@H](C)O)NC(=O)[C@@H]2CSSC[C@H](NC1=O)C(=O)N[C@@H](Cc1ccccc1)C(=O)N1CCC[C@H]1C(=O)N[C@@H](CC(=O)O)C(=O)NCC(=O)N[C@@H](CCCNC(=N)N)C(=O)N2

half-life [2]: 5.9 h
metabolised at 24 h [4]: 30%
Ka [5]: 1.1 ×10¹⁰ /M
SMILES: CC[C@@H]1NC(=O)[C@H](CCCNC(=N)N)NC(=O)CNC(=O)[C@H](CC(=O)O)NC(=O)[C@@H]2CCCN2C(=O)[C@H](Cc2ccccc2)NC(=O)[C@H](CC)NC(=O)[C@H]([C@@H](C)CC)NC(=O)[C@@H]2CCCN2C(=O)[C@@H]2CCCN2C(=O)[C@H]([C@@H](C)CC)NC(=O)[C@H](CO)NC(=O)[C@H](Cc2ccccc2)NC(=O)[C@H]([C@@H](C)O)NC1=O (cyclo([Abu]FPDGR[Abu]TFSIPPI))

Ka [7]: 6.2 ×10⁷ /M
SMILES: CC[C@@H]1NC(=O)[C@H](CCCNC(=N)N)NC(=O)CNC(=O)[C@H](CC(=O)O)NC(=O)[C@@H]2CCCN2C(=O)[C@H](Cc2ccccc2)NC(=O)[C@H](CC)NC(=O)[C@H]([C@@H](C)CC)NC(=O)[C@@H]2CCCN2C(=O)[C@@H]2CCCN2C(=O)[C@H]([C@@H](C)CC)NC(=O)[C@H](CO)NC(=O)CN(Cc2ccccc2)C(=O)[C@H]([C@H](C)O)NC1=O

Ka [8]: 1.9 ×10⁸ /M
SMILES: CC[C@@H]1NC(=O)[C@H](CCCNC(=N)N)NC(=O)CNC(=O)[C@H](CC(=O)O)NC(=O)[C@@H]2CCCN2C(=O)[C@H](Cc2ccccc2)NC(=O)[C@H](CC)NC(=O)[C@H]([C@@H](C)CC)NC(=O)[C@@H]2CCCN2C(=O)[C@@H]2CCCN2C(=O)[C@H]([C@@H](C)CC)NC(=O)[C@H](CO)NC(=O)CN(CCCCN)C(=O)[C@H]([C@H](C)O)NC1=O

Activity [3]: inactive
SMILES: CC[C@H](NC(=O)[C@H](CCCNC(=N)N)NC(=O)CN)C(=O)N[C@H](C(=O)N[C@@H](Cc1ccccc1)C(=O)N[C@@H](CO)C(=O)N[C@H](C(=O)N1CCC[C@H]1C(=O)N1CCC[C@H]1C(=O)N[C@H](C(=O)N[C@@H](CC)C(=O)N[C@@H](Cc1ccccc1)C(=O)N1CCC[C@H]1C(=O)N[C@@H](CC(=O)O)C(=O)O)[C@@H](C)CC)[C@@H](C)CC)[C@H](C)O

half-life [2]: 1.1 h
SMILES: CC[C@H](NC(=O)[C@H](CCCNC(=N)N)NC(=O)CN)C(=O)N[C@H](C(=O)N(CCCCN)CC(=O)N[C@@H](CO)C(=O)N[C@H](C(=O)N1CCC[C@H]1C(=O)N1CCC[C@H]1C(=O)N[C@H](C(=O)N[C@@H](CC)C(=O)N[C@@H](Cc1ccccc1)C(=O)N1CCC[C@H]1C(=O)N[C@@H](CC(=O)O)C(=O)O)[C@@H](C)CC)[C@@H](C)CC)[C@@H](C)O (H-GR[Abu]T[Nlys]SIPPI[Abu]FPD-OH)

half-life [2]: 3.03 h
Ka [3]: 2 ×10⁹ /M
SMILES: CC[C@H](C)[C@@H]1NC(=O)[C@@H]2CCCN2C(=O)[C@@H]2CCCN2C(=O)[C@H]([C@@H](C)CC)NC(=O)[C@H](CO)NC(=O)[C@H](Cc2ccccc2)NC(=O)[C@H]([C@@H](C)O)NC(=O)[C@@H](NC(=O)[C@H](CCCNC(=N)N)NC(=O)CN)CSSC[C@@H](C(=O)N[C@@H](Cc2ccccc2)C(=O)N2CCC[C@H]2C(=O)N[C@@H](CC(=O)O)C(=O)O)NC1=O (H-GRCTFSIPPICFPD-OH; disulfide 3-11)

half-life [2]: 2.75 h
Ka [3]: 4.9 ×10⁶ /M
Ka [1]: 9.9 ×10⁹ /M
SMILES: CC[C@H](C)[C@@H]1NC(=O)[C@@H]2CCCN2C(=O)[C@@H]2CCCN2C(=O)[C@H]([C@@H](C)CC)NC(=O)[C@H](CO)NC(=O)[C@H](CCCCN)NC(=O)[C@H]([C@@H](C)O)NC(=O)[C@@H](NC(=O)[C@H](CCCNC(=N)N)NC(=O)CN)CSSC[C@@H](C(=O)N[C@@H](Cc2ccccc2)C(=O)N2CCC[C@H]2C(=O)N[C@@H](CC(=O)O)C(=O)O)NC1=O

half-life [2]: 5.87 h
SMILES: CC[C@@H]1NC(=O)[C@H](CCCNC(=N)N)NC(=O)CNC(=O)[C@H](CC(=O)O)NC(=O)[C@@H]2CCCN2C(=O)[C@H](Cc2ccccc2)NC(=O)[C@H](CC)NC(=O)[C@H]([C@@H](C)CC)NC(=O)[C@@H]2CCCN2C(=O)[C@@H]2CCCN2C(=O)[C@H]([C@@H](C)CC)NC(=O)[C@H](CO)NC(=O)CN(Cc2ccccc2)C(=O)[C@H]([C@@H](C)O)NC1=O
